Laboratory results: patent US6492344B1, “Syndecan enhancer element and syndecan stimulation of cellular differentiation” (Biotie Therapies Corp., priority 1993, dated 2002)
“Also recorded” adds a separate entry of the source.

How the values were obtained:
syndecan-1 gene = assay: Syndecan-1 mRNA quantification in 3T3NIH cells exposed to FGF-2; format: cell-based, mouse; conditions: 3T3NIH cells, 10 ng/ml FGF-2
Excerpt: Northern Blot—RNA was isolated from 3T3 and NMuMG cells using 4 M guanidine isothiocyanate and CsCl density centrifugation (Chirgwin et al., Biochemistry 18:5294-5299 (1979)). RNA samples were size-separated on a 1% agarose formaldehyde gel, transferred to a GeneScreen Plus™ membrane (New England Nuclear) and hybridized with a multi-prime (Amersham) labeled partial cDNA clone for mouse syndecan (PM-4) (Saunders et al., J. Cell Biol. 108:1547-1556 (1989)). After hybridization, the membrane was washed in 2×SSC and 1.0% SDS at 65° C. (high stringency conditions). For rehybridization with glyceraldehyde-3-phosphate-dehydrogenase (GAPDH; Fort et al., Nucleic Acid Res. 13:1431-1442 (1985)), the bound PM-4 probe was removed as recommended by the manufacturer of the filter (NEN).
Following incubation with FGF-2, syndecan MRNA was isolated and quantified. Control incubations without FGF-2 were also performed. Syndecan mRNA was isolated and quantified […] FGF-2 treatment following 6, 12, and 24 hr incubations. The quantification of syndecan mRNA production can be seen in FIG. 11a. GAPDH mRNA was used as a loading control. […] The enhancement appears to be maximal at about 6 hrs of FGF-2 incubation, and decreases thereafter. In the Figure, two individual exposures for each time point are presented.

MCA3D cells = assay: Cell proliferation of MCA3D keratinocytes; format: cell-based; conditions: MCA3D mouse keratinocytes
[1] = system: syndecan-1 enhancer element (pXb6); assay: CAT reporter assay of syndecan upstream fragment pXb6 in 3T3 NIH cells; format: cell-based, mouse; conditions: 3T3NIH cells transiently transfected; FGF-2 alone
Excerpt: Determination of Mouse Syndecan Promoter and Enhancer Activities. The mouse syndecan-1 gene has been cloned and characterized up to −10 kbs upstream from the transcription start site. To determine the specific activities of different proximal promoter regions (up to −2 kbs from the start site) and enhancer regions (from −2 to −10 kbs) we have made plasmid constructs in which these regions were cloned into pCAT basic or pCAT promoter vectors, containing the CAT reporter gene. The reporter CAT gene produces the enzyme chloramphenicol acetyltransferase, which transfers the n-butyryl moiety of n-butyryl CoA to chloramphenicol. […]
The plasmid constructs were transiently transfected into eukaryotic cells by calcium phosphate precipitation simultaneously with a β-Galactosidase expressing vector to determine transfection efficiency. […] This was incubated from 2 hours to overnight and the color reaction was measured spectrophotometrically at 420 nm.
CAT activity was determined by adding 0.25 M Tris buffer, 25 ng n-butyryl CoA and 0.0626 μCi of ^14C-chloramphenicol to the cytoplasmic extract. Samples were incubated overnight, extracted with xylene and the radioactivity present was measured by scintillation counting. CAT activity was corrected for transfection efficiency as determined by assays of β-galactosidase activity. […]

[2] = system: FGF-inducible Response Element (FiRE); assay: FiRE / Syn Prom CAT reporter in MCA3D keratinocytes; format: cell-based; conditions: MCA3D mouse keratinocytes transfected with FiRE construct
Experimental: The cells used for proximal promoter constructs were 3T3 NIH, S115 (either hormone-treated or not) and nMuMG cells. For enhancer constructs we used 3T3 NIH cells grown in 2% CMS medium and MCA 3D cells grown in Ham's medium. 3T3 NIH cells were also used to test the effect of growth factors in 2% CMS medium with 10 ng/ml FGF-2 and 2ng/ml TGFβ-1. MCA 3D cells were used to test the effect of 10 ng/ml KGF.
FiRE is Induced Selectively by FGF-7 in Keratinocytes. The ability of FiRE to enhance transcription was tested in the mouse keratinocyte cell line MCA3D (Kuliz-Martin et al., Carcinogenesis 4:1367-1377 (1983)). MCA3D cells were transfected as described supra for mouse NIH3T3 cells. Following transfection, the cells were treated with fetal calf serum, PDGF, FGF-1, FGF-2, and FGF-7 as described supra for the NIH3T3 cells.

FGF-2: Basic fibroblast growth factor (FGF-2 or bFGF); recombinant human
time of maximal enhancement of syndecan mRNA (syndecan-1 gene): about 6 hrs | syndecan mRNA expression (syndecan-1 gene; after 4 hrs): significantly enhanced (several fold) | cell proliferation (MCA3D cells): stimulated cell proliferation | CAT gene expression from plasmid pXb6 [1]: increase in CAT gene expression | FiRE activation [2]: failed to activate FiRE; also recorded: only slightly activated FiRE
